As usually defined, the IC50 is the midpoint of a concentration-inhibition curve.

Assay [1] concerns the target T1, PAD4 (Homo sapiens (Human), UniProt Q9UM07). The assay can be described thus: Ammonia release biochemical assay (citrullination).
Protocol: Ammonia Release Biochemical Assay
Citrullination assay was detected via ammonia release. […] The reaction was stopped after 60 min by addition of stop/detection buffer containing 50 mM EDTA, 2.6 mM of o-phthaladehyde and 2.6 mM DTT.
In assay [2] the target is T1, PAD4. Description: FP binding assay. As to conditions: for actively inhibiting PAD4 enzyme activity, FP Binding assay: summary of Table 1.
Protocol: Binding of compounds with PAD4 was detected by FP assay. PAD4 was diluted to 1 uM in assay buffer (100 mM HEPES, 50 mM NaCl, 1 mM DTT, 5% Glycerol and 1 mM CHAPS) and added to wells containing various concentration of compounds or DMSO vehicle (1%) in a 384 well black plate. 10 nM of fluorescein labelled probe (JPAD-00085) was added to the plate.
The mark [3] stands for this setting: read-out: NH3 release biochemical assay PAD4 IC50.

T1 sequence (Q9UM07 whole entry): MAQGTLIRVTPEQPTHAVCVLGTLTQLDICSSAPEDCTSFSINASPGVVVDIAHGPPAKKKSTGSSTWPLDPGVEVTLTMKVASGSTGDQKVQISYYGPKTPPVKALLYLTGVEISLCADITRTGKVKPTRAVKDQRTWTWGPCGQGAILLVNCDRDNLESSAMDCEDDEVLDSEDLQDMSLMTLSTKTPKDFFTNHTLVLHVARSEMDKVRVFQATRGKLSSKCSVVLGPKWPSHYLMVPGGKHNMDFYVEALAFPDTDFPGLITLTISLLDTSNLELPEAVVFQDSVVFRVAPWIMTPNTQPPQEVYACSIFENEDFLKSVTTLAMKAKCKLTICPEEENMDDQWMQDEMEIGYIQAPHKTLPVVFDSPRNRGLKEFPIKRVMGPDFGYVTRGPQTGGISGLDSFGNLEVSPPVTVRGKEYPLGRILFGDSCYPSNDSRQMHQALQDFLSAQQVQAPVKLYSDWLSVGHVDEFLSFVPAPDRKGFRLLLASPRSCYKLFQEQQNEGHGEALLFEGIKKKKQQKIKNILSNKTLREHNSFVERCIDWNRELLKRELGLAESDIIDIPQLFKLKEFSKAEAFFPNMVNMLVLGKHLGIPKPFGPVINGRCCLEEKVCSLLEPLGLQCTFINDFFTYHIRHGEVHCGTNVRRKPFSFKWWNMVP

Take `CCn1c(-c2nc3cc(C(=O)N4CCC[C@@H](N)C4)ccn3c2C)cc2cc(F)ccc21` [Compound 39, (R)-(3-aminopiperidin-1-yl)(2-(1-ethyl-5-fluoro-1H-indol-2-yl)-3-methylimidazo[1,2-a]pyridin-7-yl)methanone]: the IC50 in assay [1] (Table 1, class A, read-out: IC50 value, ammonia release biochemical assay) is not above 1000 nM; in assay [1] (setting [3]), less than 1000 nM; in assay [2] it was less than 1000 nM. In addition, in assay [2], the “actively inhibiting PAD4 enzyme activity, FP Binding assay” value was “actively inhibiting PAD4 enzyme activity”.

Turning to `Cc1c(-c2cc3ccccc3n2Cc2ccccn2)nc2cc(C(=O)N3CCC[C@@H](N)C3)ccn12` [Compound 16, (R)-(3-Aminopiperidin-1-yl)(3-methyl-2-(1-(pyridin-2-ylmethyl)-1H-indol-2-yl)imidazo[1,2-a]pyridin-7-yl)methanone], the IC50 in assay [1] (setting [3]) was less than 1000 nM. Moreover, in assay [2], the IC50 was less than 1000 nM and the “actively inhibiting PAD4 enzyme activity, FP Binding assay” value was “actively inhibiting PAD4 enzyme activity”.
